# Measurements as given in a melting point compilation (Tetko et al.; mined from patent text by program, amines drawn as free bases though some values may be those of a salt).
row,SMILES,melting point
1,Cc1ccc(-c2c(NS(=O)(=O)c3ccc(C(C)(C)COC4CCCCO4)cc3)ncnc2OCCOc2ncc(Br)cn2)cc1 (stereo not given),138 to 139 °C
2,COc1cc(COc2ccc(N)nn2)c2ccccc2c1,167 to 170 °C
3,Cc1ccc(C)n1CCNC(=O)c1ccc(Cl)cc1,104 to 105 °C
4,CCCCCCOc1ccc(-c2ncc(C#N)cn2)cc1,93.5 to 93.8 °C
5,C#CCCCn1ncc2c(OCC)c(C(=O)OCC)cnc21,84 to 85.5 °C
6,ClCCCOc1ccccc1Nc1nc(Cl)nc2c1ncn2C1CCCC1,110 to 112 °C
7,O=C(Nc1ccccc1)O[C@@H]1CN2CCC1CC2,129 to 130 °C
8,CCOC(=O)CNC(=O)CN1CCCC1=O,63 to 64 °C
9,CCN(CC)C(=O)c1cc(-c2ccc(OC)cc2)ccc1-c1ccccc1,117 to 118 °C
10,COc1ccc(C(=O)Nc2ccccc2)cc1NCc1ccccc1,164 to 165 °C
11,Cc1nc(N)nc(N)c1C12CC3CC(CC(C3)C1)C2,254 to 258 °C
12,CCCCNC(=O)[C@@H](C[C@H](O)[C@H](CC1CCCCC1)NC(=O)[C@H](Cc1cscn1)NC(=O)[C@@H](CC(=O)N(C)Cc1ccccc1)Cc1ccccc1)C(C)C,155 to 156 °C
13,Cc1ccc(N2C(=O)c3ccccc3C2=O)c(O)c1,251 to 254 °C
14,OCCCc1cccc2ccncc12,66 to 69 °C
15,Nc1cccc(CN2CCC(NC(=O)NC(=O)c3ccccc3)CC2)c1,194 to 195 °C
16,CC(=O)N1c2ccc([N+](=O)[O-])cc2CC1C(C)(C)C (stereo not given),99 °C
17,COc1cccc(C(O)c2cccc(C(F)(F)F)c2)c1 (stereo not given),51 to 52 °C
18,O=C(CNC(=O)OCc1ccccc1)Nc1nnc(SCc2ccccc2)s1,200 to 202 °C
19,O=C(O)c1ccc(CCCC2SCC(=O)N2CCC2(O)CCCCC2)cc1 (stereo not given),147 to 148 °C
20,COc1ccc(N(CCCC(=O)O)C(=O)CCN(C(=O)c2ccc(Cl)cc2)c2ccc(OC)cc2)cc1,91 to 93 °C
21,COc1ccc(-n2c(-c3ccc(Cl)cc3Cl)nc(C(=O)NC3CCCCC3)c2C)cc1,160 to 161 °C
22,CC(C)C1N(C)CCCN1C(=O)NC(C)C1CC(N=C=O)CC(C)(C)C1 (stereo not given),180 to 192 °C
23,NC(=O)C1C=Cc2ccccc2N1C(=O)c1ccccc1 (stereo not given),169 to 171 °C
24,COc1ccc2c(c1)C=C(C(O)C(F)(F)F)CC2 (stereo not given),66 to 68 °C
25,CCCc1c(O)c(F)cc(C(C)=O)c1O,129 to 130 °C

row,SMILES,melting point
1,N#Cc1cnc2cnc(Cl)cc2c1Nc1cccc(Br)c1,220 to 223 °C
2,Cc1cc(NC(=O)C2=C(O)c3ccsc3S(=O)(=O)C2)no1,209 to 210 °C
3,CC(C)(C)C(=O)Nc1nn(-c2ccc(F)cc2F)c2c1C1CCC2C1 (stereo not given),136 to 138 °C
4,CCOC(=O)C1=C(C)NC(C)=C(C(=O)OC)C1c1ccccc1Br (stereo not given),134 to 136 °C
5,CCNc1cn(-c2cccnc2)nc1Cl,89 to 90 °C
6,O=S(=O)(Cc1ccc(O)cc1)Cc1ccc(O)cc1,92 °C
7,Fc1ccc(Oc2nccc(-c3c(-c4ccc(F)cc4)ncn3C3CCNCC3)n2)cc1,186 to 187 °C
8,CCCCCc1c(C(C)C)nc(C(C)C)c(CO)c1-c1ccccc1C,81 to 83 °C
9,COc1ccc(C(=O)c2ccccc2)c(O)c1Cc1cc(C)cc(-n2nc3ccccc3n2)c1O,206 to 209 °C
10,Cc1c(Cc2cccnc2)ccc2ccc(C(=O)O)cc12,210 to 211 °C
11,CCNC(=O)c1ccc(F)c(F)c1,94.1 to 96.2 °C
12,COC(=O)c1cc(-c2cccc(Cl)c2Cl)c(C(=O)OC)[nH]1,143 to 145 °C
13,COc1nc2cc([N+](=O)[O-])c(C)c(C(=O)N3CCNCC3)c2nc1OC,150 to 152 °C
14,Cc1ccc2c3c(c(Cl)nc2c1)C(=O)c1ccccc1-3,208 to 211 °C
15,COc1ccc(-n2c(-c3cc(-c4ccc(S(C)(=O)=O)cc4)c(N4CCOCC4)s3)nc3ccccc3c2=O)cc1,240 to 243 °C
16,COc1cc([N+](=O)[O-])c(O)c(OC)c1OC,72 to 73 °C
17,N#CCOc1ccc2occ(CC#N)c2c1,86 to 87 °C
18,C1=CC(Nc2ccccc2)C(=Nc2ccccc2)N1 (stereo not given),137 to 139 °C
19,ClCc1nc2cc(Br)ccc2s1,107 °C
20,Cc1ccnc2c(Oc3ccccc3[N+](=O)[O-])cccc12,98 to 99 °C
21,Cn1ncc(-c2ccccn2)c1S(N)(=O)=O,113 to 114 °C
22,CCC(=C(c1ccccc1)c1ccc(C=CC(N)=NO)cc1)c1ccccc1,182 to 185 °C
23,CCCCCCCC(=O)OC(C)OC1=C(C(=O)Nc2ccccn2)N(C)S(=O)(=O)c2ccccc21 (stereo not given),90 to 91 °C
24,O=C1N=C(N2CCCC2)SC1Cc1cccc(-c2ccc(O)c(C34CC5CC(CC(C5)C3)C4)c2)c1 (stereo not given),153 to 154 °C
25,COC(=O)NC(CCc1ccccc1)C(=O)OCC(Cl)(Cl)Cl (stereo not given),31 to 35 °C
